Results reported in US20230181581A1, “CIRCULATING B CELL SUBPOPULATIONS IN INDOLENT B CELL LYMPHOMA” (Alexion Pharmaceuticals, Inc., priority 2020, published 2023).
Several values for one entry are separate records, joined by “and”; a condition that tells them apart may be missing. Identical values can stand only once. Entries after “also recorded” stand apart in the source; their conditions may differ.

Assays:
Format in all cases: in vivo, human
[1] = tested on: patients with indolent B cell lymphoma (iNHL); test: Phase IIa study: patient disposition (discontinuation, treatment duration) on single agent cerdulatinib; settings: r/r iNHL, 30 mg BID
Procedure: (§1) This example describes a phase IIa study designed to determine the safety, efficacy, pharmacokinetics, and pharmacodynamics of cerdulatinib at the selected phase II dose of 30 mg BID, dosed in 28 day cycles, in patients with r/r B or T cell malignancies.
Up to 50 patients were enrolled in 5 cohorts; aggressive lymphoma, iNHL, CLL/SLL, PTCL (all receiving single agent cerdulatinib), and iNHL with cerdulatinib in combination with anti-CD20 therapy. Patients remained on drug until discontinuation due to progressive disease (PD), adverse event (AE), withdrawal of consent (WC), or at the discretion of the treating physician. […]

[2] = tested on: circulating B cell subsets; test: B cell subpopulation analysis of patient PBMC by flow cytometry over time on cerdulatinib
Procedure: (§2) Forty patients with iNHL were enrolled in a cohort receiving single agent cerdulatinib. From this cohort, 30 ml of whole blood was collected from each patient at pre-dose at baseline (C1), cycle 2 day 1 (C2), cycle 3 day 1 (C3), and cycle 6 day 1 (C6) in 10 ml mononuclear cell protection tubes (CPT tubes, BD Bioscience, San Jose, CA) and immediately centrifuged to separate mononuclear cells from plasma and red blood cells at each clinical site. At each time point, tubes were shipped for same day delivery to Caprion Biosciences, Montreal Canada, for preparation and live cell freezing of peripheral blood mononuclear cells (PBMC) by ficoll gradient centrifugation using standard procedures. Banked PBMC’s were stored at -80° C. until 5-8 patient samples through cycle 6 were obtained to enable batched flow cytometry analysis of B cell subsets for each patient over time.
PBMC’s were thawed and rested overnight in RPMI containing 10% fetal bovine serum. Cells were then stained with a cocktail containing Aqua live/dead cell stain (Life Technologies, Carlsbad, CA), and the following antibodies all obtained from BD Biosciences; CD19 PE-Cy7, CD20 BUV395, HLA-DR APC-Cy7, CD27 BV786, IgD PE, CD10 BV650, CD38 BV711, CD138 BV421, IgG BV605, and IgM APC. Cells were stained for 1 hour at room temperature, washed in phosphate buffered saline containing 0.5% bovine serum albumin, and subjected to flow cytometry using the BD Cantos. A maximum number of events was collected, the median number of total B cells collected was 18,789. The B cell subset gating strategy is described in FIG. 1.
Live B cells were then gated based on aqua viability stain and CD19. IgD and CD27 delineated double negative (DN), naïve, switched memory (SM), and non-switched memory (NSM). Within the naive cell area transitional B cells were identified based on CD10 expression. Within the SM area IgG and IgM switched B cells were identified. Plasma cells were identified based on high CD27 expression and CD138. Percent lymphocytes of total live PBMC’s were also calculated. All gating and calculation of B cell subset frequencies either from the total B cell gate or the immediate parent gate of a B cell subset were calculated using Flow Jo software (Tree Star, Inc., Ashland, OR), and analyzed.

[3] = tested on: patients with indolent B cell lymphoma (iNHL); test: Phase IIa study: clinical response (best response) to single agent cerdulatinib in r/r iNHL patients grouped by baseline B cell subsets; settings: 30 mg BID
Procedure: as §1
Up to 50 patients were enrolled in 5 cohorts; aggressive lymphoma, iNHL, CLL/SLL, PTCL (all receiving single agent cerdulatinib), and iNHL with cerdulatinib in combination with anti-CD20 therapy. Patients remained on drug until discontinuation due to progressive disease (PD), adverse event (AE), withdrawal of consent (WC), or at the discretion of the treating physician.
as §2
A PCA analysis of the data was performed to identify subgroups of patients characterized by a common B cell phenotype. Subsequent analysis of the results of the PCA by hierarchical clustering was performed.

[4] = iNHL patients, baseline (C1) vs cycles 2, 3, 6, FIG. 5A

CCS(=O)(=O)N1CCN(c2ccc(Nc3ncc(C(N)=O)c(NC4CC4)n3)cc2)CC1 [cerdulatinib, 4-(cyclopropylamino)-2-((4-(4-(ethylsulfonyl)piperazin-1-yl)phenyl)amino)pyrimidine-5-carboxamide]
Discontinuation due to AE (adverse event), number of patients ([1]; G1 (N=9)): 4.00
Discontinuation due to AE (adverse event), percent of patients ([1]; G1 (N=9)): 44.4%
Discontinuation due to PD (progressive disease), number of patients ([1]; G1 (N=9)): 1.00
Discontinuation due to PD (progressive disease), percent of patients ([1]; G1 (N=9)): 11.1%
Discontinuation due to AE (adverse event), number of patients ([1]; G2 (N=16)): 1.00
Discontinuation due to AE (adverse event), percent of patients ([1]; G2 (N=16)): 6.3%
Discontinuation due to PD (progressive disease), number of patients ([1]; G2 (N=16)): 6.00
Discontinuation due to PD (progressive disease), percent of patients ([1]; G2 (N=16)): 37.5%
Discontinuation due to AE (adverse event), number of patients ([1]; G2 + G3 (N=29)): 3.00
Discontinuation due to AE (adverse event), percent of patients ([1]; G2 + G3 (N=29)): 10.3%
Discontinuation due to PD (progressive disease), number of patients ([1]; G2 + G3 (N=29)): 11.0
Discontinuation due to PD (progressive disease), percent of patients ([1]; G2 + G3 (N=29)): 37.9%
Discontinuation due to AE (adverse event), number of patients ([1]; G3 (N=13)): 2.00
Discontinuation due to AE (adverse event), percent of patients ([1]; G3 (N=13)): 15.4%
Discontinuation due to PD (progressive disease), number of patients ([1]; G3 (N=13)): 5.00
Discontinuation due to PD (progressive disease), percent of patients ([1]; G3 (N=13)): 38.5%
Discontinuation due to AE (adverse event), number of patients ([1]; Total (N=38)): 7.00
Discontinuation due to AE (adverse event), percent of patients ([1]; Total (N=38)): 18.4%
Discontinuation due to PD (progressive disease), number of patients ([1]; Total (N=38)): 12.0
Discontinuation due to PD (progressive disease), percent of patients ([1]; Total (N=38)): 31.6%
CD10 and CD38 expression on transitional B cells over time ([2]; iNHL patients on cerdulatinib, FIG. 5B representative Group 1 patient): loss of CD10 and CD38 expression
Frequency of B cells of lymphocytes over time [2, 4]: did not change
Frequency of CD10 negative (non-transitional) naïve B cells over time [2, 4]: rise and increase
Frequency of total naïve B cells over time [2, 4]: did not change
Frequency of transitional (CD10+) B cells of total B cells over time [2, 4]: decreased; also recorded: induces loss of transitional B cell phenotype
Frequencies of switched memory or double negative B cells over time ([2]; iNHL patients, baseline (C1) vs cycles 2, 3, 6, FIG. 8): no meaningful impact; also recorded: does not impact
Impact on the measured B cell populations ([2]; iNHL patients, over a period of 6 months on therapy): very little impact
Best Response CR, number of patients ([3]; G1 (N=9)): 1.00
Best Response CR, percent of patients ([3]; G1 (N=9)): 11.1%
Best Response PD, number of patients ([3]; G1 (N=9)): 1.00
Best Response PD, percent of patients ([3]; G1 (N=9)): 11.1%
Best Response PR, number of patients ([3]; G1 (N=9)): 1.00
Best Response PR, percent of patients ([3]; G1 (N=9)): 11.1%
Best Response SD, number of patients ([3]; G1 (N=9)): 2.00
Best Response SD, percent of patients ([3]; G1 (N=9)): 22.2%
ORR (overall response rate), percent of patients ([3]; G1 (N=9)): 22% and 22.2%
ORR + clinical benefit, number of patients ([3]; G1 (N=9)): 4.00
ORR + clinical benefit, percent of patients ([3]; G1 (N=9)): 44.4%
ORR, number of patients ([3]; G1 (N=9)): 2.00
Best Response CR, number of patients ([3]; G2 (N=16)): 5.00
Best Response CR, percent of patients ([3]; G2 (N=16)): 31.3%
Best Response PD, number of patients ([3]; G2 (N=16)): 0 (0%)
Best Response PD, percent of patients ([3]; G2 (N=16)): 0 (0%)
Best Response PR, number of patients ([3]; G2 (N=16)): 8.00
Best Response PR, percent of patients ([3]; G2 (N=16)): 50.0%
Best Response SD, number of patients ([3]; G2 (N=16)): 1.00
Best Response SD, percent of patients ([3]; G2 (N=16)): 6.3%
ORR (overall response rate), percent of patients ([3]; G2 (N=16)): 81% and 81.3%
ORR + clinical benefit, number of patients ([3]; G2 (N=16)): 14.0
ORR + clinical benefit, percent of patients ([3]; G2 (N=16)): 87.5%
ORR, number of patients ([3]; G2 (N=16)): 13.0
Best Response CR, number of patients ([3]; G2 + G3 (N=29)): 6.00
Best Response CR, percent of patients ([3]; G2 + G3 (N=29)): 20.7%
Best Response PD, number of patients ([3]; G2 + G3 (N=29)): 3.00
Best Response PD, percent of patients ([3]; G2 + G3 (N=29)): 10.3%
Best Response PR, number of patients ([3]; G2 + G3 (N=29)): 14.0
Best Response PR, percent of patients ([3]; G2 + G3 (N=29)): 48.3%
Best Response SD, number of patients ([3]; G2 + G3 (N=29)): 4.00
Best Response SD, percent of patients ([3]; G2 + G3 (N=29)): 13.8%
ORR (overall response rate), percent of patients ([3]; G2 + G3 (N=29)): 69.0%
ORR + clinical benefit, number of patients ([3]; G2 + G3 (N=29)): 24.0
ORR + clinical benefit, percent of patients ([3]; G2 + G3 (N=29)): 82.8%
ORR, number of patients ([3]; G2 + G3 (N=29)): 20.0
Best Response CR, number of patients ([3]; G3 (N=13)): 1.00
Best Response CR, percent of patients ([3]; G3 (N=13)): 7.7%
Best Response PD, number of patients ([3]; G3 (N=13)): 3.00
Best Response PD, percent of patients ([3]; G3 (N=13)): 23.1%
Best Response PR, number of patients ([3]; G3 (N=13)): 6.00
Best Response PR, percent of patients ([3]; G3 (N=13)): 46.2%
Best Response SD, number of patients ([3]; G3 (N=13)): 3.00
Best Response SD, percent of patients ([3]; G3 (N=13)): 23.1%
ORR (overall response rate), percent of patients ([3]; G3 (N=13)): 53.8%
ORR + clinical benefit, number of patients ([3]; G3 (N=13)): 10.0
ORR + clinical benefit, percent of patients ([3]; G3 (N=13)): 76.9%
ORR, number of patients ([3]; G3 (N=13)): 7.00
Best Response CR, number of patients ([3]; Total (N=38)): 7.00
Best Response CR, percent of patients ([3]; Total (N=38)): 18.4%
Best Response PD, number of patients ([3]; Total (N=38)): 4.00
Best Response PD, percent of patients ([3]; Total (N=38)): 10.5%
Best Response PR, number of patients ([3]; Total (N=38)): 15.0
Best Response PR, percent of patients ([3]; Total (N=38)): 39.5%
Best Response SD, number of patients ([3]; Total (N=38)): 6.00
Best Response SD, percent of patients ([3]; Total (N=38)): 15.8%
ORR (overall response rate), percent of patients ([3]; Total (N=38)): 57.9%
ORR + clinical benefit, number of patients ([3]; Total (N=38)): 28.0
ORR + clinical benefit, percent of patients ([3]; Total (N=38)): 73.7%
ORR, number of patients ([3]; Total (N=38)): 22.0
